Here are results for one compound from US8198285B2, “Pyrazine derivatives” (Astrazeneca AB, priority 2010, dated 2012).

The pIC50 is the negative decadic logarithm of the IC50, by convention in mol/L. Read a low pIC50 as a large IC50.

This assay addresses T1, cardiac Na+ channel, hNav1.5 (Homo sapiens, UniProt Q14524).
T1 construct: expressed in transfected cells; host or cells: Chinese hamster ovary K1 (CHO) cells
The experiment in a line: hNav1.5 IonWorks electrophysiology in CHO cells. It is filed as cell-based. The following applies: IonWorks Quattro, 3 Hz, room temperature. As for the experimental part: The hNav1.5-expressing Chinese hamster ovary K1 (CHO) cells used has been described previously (Persson, F. et al, (2005), Journal of Cardiovascular Electrophysiology, 16, 329-341). These cells were grown to semi-confluence at 37° C. in a humidified environment (5% CO2) in F-12 Ham medium containing Glutamax™, 10% foetal calf serum and 1 mg/ml G418 (all Invitrogen). Prior to use, the monolayer was washed using a pre-warmed (37° C.) 3 ml aliquot of Versene 1:5000 (Invitrogen). After aspiration of this solution the flask was incubated at 37° C. with a further 3 ml of Versene 1:5000 for a period of 6 min. […] A 0.5 ml aliquot of cell suspension was removed and the number of viable cells (based on trypan blue exclusion) was determined in an automated cell counter (Cedex; Innovatis) so that the cell re-suspension volume could be adjusted with PBS to give the desired final cell concentration. […]
Pre- and post-scan hNav1.5 current amplitude was measured from the leak-subtracted traces by the IonWorks™ software by taking the average current during the end of the depolarising pulse to 0 mV (baseline current) and subtracting this from the peak inward current. […]
A general note: The patch-clamp technique gives a direct electrical read-out from membranes.

pIC50: −log10 of the molar value. Counter-ions that a name gives are not always drawn.

T1 sequence (Q14524 whole entry): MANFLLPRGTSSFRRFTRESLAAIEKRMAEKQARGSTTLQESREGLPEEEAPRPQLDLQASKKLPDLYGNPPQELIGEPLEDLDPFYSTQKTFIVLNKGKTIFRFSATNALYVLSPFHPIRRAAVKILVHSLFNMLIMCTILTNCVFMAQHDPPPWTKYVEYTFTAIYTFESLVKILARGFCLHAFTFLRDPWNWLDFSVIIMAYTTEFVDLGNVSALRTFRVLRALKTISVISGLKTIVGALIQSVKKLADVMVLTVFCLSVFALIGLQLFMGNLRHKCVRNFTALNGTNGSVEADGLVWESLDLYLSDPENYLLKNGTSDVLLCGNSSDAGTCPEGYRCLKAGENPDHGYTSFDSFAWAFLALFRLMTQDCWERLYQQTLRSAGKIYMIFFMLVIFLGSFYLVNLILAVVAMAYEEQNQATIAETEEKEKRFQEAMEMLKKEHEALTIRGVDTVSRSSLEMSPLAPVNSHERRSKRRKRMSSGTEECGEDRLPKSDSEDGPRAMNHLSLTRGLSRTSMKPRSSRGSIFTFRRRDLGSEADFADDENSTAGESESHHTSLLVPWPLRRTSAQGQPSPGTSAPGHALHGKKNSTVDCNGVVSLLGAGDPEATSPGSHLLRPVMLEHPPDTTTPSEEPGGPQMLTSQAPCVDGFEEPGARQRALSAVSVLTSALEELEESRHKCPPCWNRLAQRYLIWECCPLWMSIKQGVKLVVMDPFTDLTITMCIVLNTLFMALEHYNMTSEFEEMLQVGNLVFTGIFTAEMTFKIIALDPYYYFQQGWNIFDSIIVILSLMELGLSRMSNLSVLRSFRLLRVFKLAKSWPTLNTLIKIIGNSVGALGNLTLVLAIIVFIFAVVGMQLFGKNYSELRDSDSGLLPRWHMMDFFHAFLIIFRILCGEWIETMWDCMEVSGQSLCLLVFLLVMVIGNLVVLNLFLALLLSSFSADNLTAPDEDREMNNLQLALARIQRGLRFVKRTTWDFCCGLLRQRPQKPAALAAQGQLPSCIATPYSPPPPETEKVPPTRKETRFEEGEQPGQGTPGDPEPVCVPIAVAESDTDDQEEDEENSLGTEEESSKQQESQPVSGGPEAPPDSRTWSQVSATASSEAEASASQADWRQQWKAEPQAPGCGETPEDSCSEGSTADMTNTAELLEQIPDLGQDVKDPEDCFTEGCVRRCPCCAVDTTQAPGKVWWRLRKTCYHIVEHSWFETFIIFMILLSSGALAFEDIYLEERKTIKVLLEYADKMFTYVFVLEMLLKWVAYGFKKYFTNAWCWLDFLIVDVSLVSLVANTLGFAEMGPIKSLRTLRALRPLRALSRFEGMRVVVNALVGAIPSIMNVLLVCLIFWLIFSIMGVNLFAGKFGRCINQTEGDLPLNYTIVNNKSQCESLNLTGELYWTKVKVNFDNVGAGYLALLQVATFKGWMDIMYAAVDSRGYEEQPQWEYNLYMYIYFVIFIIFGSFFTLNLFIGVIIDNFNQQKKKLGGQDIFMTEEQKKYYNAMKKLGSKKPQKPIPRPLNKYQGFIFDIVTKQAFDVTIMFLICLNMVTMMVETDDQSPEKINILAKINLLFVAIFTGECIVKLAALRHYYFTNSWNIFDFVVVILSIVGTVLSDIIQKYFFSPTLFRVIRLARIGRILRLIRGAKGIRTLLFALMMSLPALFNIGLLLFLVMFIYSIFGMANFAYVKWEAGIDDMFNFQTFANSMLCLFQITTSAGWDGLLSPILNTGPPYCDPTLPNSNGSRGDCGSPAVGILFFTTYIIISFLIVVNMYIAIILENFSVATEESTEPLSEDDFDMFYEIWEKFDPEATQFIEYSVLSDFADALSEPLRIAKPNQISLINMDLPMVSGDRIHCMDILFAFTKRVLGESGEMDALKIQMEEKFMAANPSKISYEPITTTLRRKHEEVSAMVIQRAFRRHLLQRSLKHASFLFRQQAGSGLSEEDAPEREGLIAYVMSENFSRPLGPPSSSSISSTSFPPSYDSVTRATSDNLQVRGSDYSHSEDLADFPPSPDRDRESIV

On to `COCCCNCCCc1ccc(-c2cnc(N)c(C(=O)Nc3cccnc3)n2)cc1` [Example 1, 3-Amino-6-(4-{3-[(3-methoxypropyl)amino]propyl}phenyl)-N-pyridin-3-ylpyrazine-2-carboxamide tri-hydrochloride], for which the pIC50 was 4.67.
